In patent US9480649B2, “Lipid microparticle growth factor formulations” (Biopharm Gesellschaft zur biotechnologischen Entwicklung …, priority 2006, dated 2016):
Converted amounts (≈) assume the structure as drawn. Like-named read-outs stand apart in the source and are kept apart here. Peptide text beside a SMILES is read from it.

Assays:
[1] = for concentration prepared and stabilized using the lipid microparticle formulation: pH 7
Protocol: The tube was vortexed briefly. • c. The sample was placed in an ice-ethanol bath to maintain a temperature of approximately 4° C. • d. The tip of a probe sonicator was placed just above the bottom of the microcentrifuge tube. It was confirmed that the sonicator tip was not touching the sides or the bottom of the tube. • e. The sample was sonicated for 2 h at setting 10 on a 25% duty cycle with a period of 20 sec, producing an average power output of 22 watts. • f. The ice-ethanol bath was changed every 12 min to maintain temperature. • g. […] The solution was centrifuged for 4 min at 12,000 rpm to remove any metal particulates left by the probe tip. • i. 1 ml of the LMP was transferred to a clean 1.5 microcentrifuge tube.
Polyphenols are a group of chemical substances found in plants, characterized by the presence of more than one phenol group per molecule. The term comprises tannins, lignins and flavonoids. […] Myricetin (C15H10O8, MW 318.24) is a naturally occurring flavonoid found in many food sources known to have antioxidant and anti-inflammatory properties. […] Despite its therapeutic potential, myricetin has very limited water solubility. […] In an effort to increase the solubility of myricetin to enhance its therapeutic potential, myricetin was incorporated into lipid microparticles as follows: • j. 1 mg myricetin was added to the tube and vortexed to combine. […] The myricetin mixture was again placed over the ice-ethanol bath and fitted with the probe sonicator. • l. The mixture was sonicated on the same settings for 2.5 h, again replacing the ice-ethanol bath every 12-15 min. • m. […] The solution was centrifuged again for 5 min at 12,000 rpm to remove any metal particulates. • o. The solution was then titrated to pH 7 with 1 M NaOH.
In an effort to increase solubility, Vitamin E was incorporated into lipid LMP as follows: • j. 5 uL (4.65 mg) of vitamin E was added to the tube and vortexed to combine. • k. The Vitamin E mixture was placed over the ice-ethanol bath again and fitted with the probe sonicator. • l. The mixture was sonicated on the same settings for 2.5 h, again replacing the ice-ethanol bath every 12-15 min. • m. […] The solution was centrifuged again for 4 min at 12,000 rpm to remove any metal particulates. • o. The solution was then titrated to pH 7 with 1 M NaOH.
In an effort to increase the solubility of Leu-Leu-Leu to enhance it's therapeutic potential, Leu-Leu-Leu was incorporated into lipid microparticles as follows: • j. 8 mg Leu-Leu-Leu was added to the tube and vortexed to combine. […] The Leu-Leu-Leu mixture was again placed over the ice-ethanol bath and fitted with the probe sonicator. • l. The mixture was sonicated on the same settings for 2.5 h, again replacing the ice-ethanol bath every 12-15 min. • m. […] The solution was centrifuged again for 5 min at 12,000 rpm to remove any metal particulates. • o. The solution was then titrated to pH 7 with 1 M NaOH.

Solubility in water = format: physicochemical; settings: based on our own results
[2] = cited from earlier work
[3] = cited from earlier work; remark: listed apart in the source
[4] = rat, in vivo
Protocol: Rats were anesthetized with sodium pentobarbital (50 mg/kg intraperitoneal), and given additional doses as needed. Rats were placed on their back, and body temperature was maintained with a heating pad (rectal thermal probe set at 37° C.). Prior to onset of drug delivery, the descending aorta was cannulated for all experimental groups.
GDF-5 Administration: GDF-5 was ^125I labelled and formulated in 20 mM sodium acetate buffer at a pH of 4.25. For intranasal administration, a mixture of ^125I-GDF-5 and unlabeled GDF-5 was delivered as 10 μL drops alternating nares every two minutes with an average total volume of 113 μL (7.0 nmol and 38 pCi). A second formulation of GDF-5 for intranasal delivery was prepared in 200 mM sodium acetate buffer at pH 4.0 and delivered as an average total volume of 91 μL (5.2 nmol, 28 uCi). For intravenous administration, a mixture of ^125I-GDF-5 and unlabeled GDF-5 was delivered as an injection into the tail vein. […]
Measurement of ^125I-labelled GDF-5 with gamma counting: Peripheral and CNS rat tissues were dissected into anatomical areas. […] The concentration of GDF-5 in each tissue sample (nM) was calculated using the counts per minute, tissue weight, and specific activity measurements from standard samples of the GDF-5 mixture delivered.

[5] = Solubility of GDF-5 in organic solvents (RP-HPLC of supernatant after centrifugation); format: physicochemical; settings: dichlormethane, acetonitrile and DMSO solutions, centrifuged
Source text: The inventors of the present application have proceeded with an extensive investigation in order to overcome the above described problems. […] Hydrophobic drugs are very often highly soluble in the volatile organic solvents. […] After adding GDF-5, dichlormethane, acetonitrile and DMSO solutions were centrifuged and the GDF-5 content of the supernatant was checked with RP-HPLC.
After adding GDF-5, solutions were centrifuged and the GDF-5 content of supernatant was checked with RP-HPLC.

[6] = tested on: cultured midbrain neurons; settings: cited from earlier work

With CC(C)C[C@H](NC(=O)[C@H](CC(C)C)NC(=O)[C@@H](N)CC(C)C)C(=O)O [Leu-Leu-Leu] (H-Leu-Leu-Leu-OH; N-terminus and C-terminus assumed) the “increase of aqueous solubility at neutral pH using the LMP formulation” value (from here on “increase of aqueous solubility”) [1] was “over three-fold”, the “concentration prepared and stabilized using the lipid microparticle formulation” value (shortened to “concentration prepared and stabilized”) [1] was 8000 µg/mL and the solubility (Solubility in water) was about 2500 µg/mL (≈ 6.99 mM).

With O=c1c(O)c(-c2cc(O)c(O)c(O)c2)oc2cc(O)cc(O)c12 [myricetin] the “increase of aqueous solubility” value [1] was 15.4 fold, the “concentration prepared and stabilized” value ([1]; 2.5 h) was 1000 µg/mL and the solubility (Solubility in water) was 65 µg/mL (≈ 0.204 mM).

With Vitamin E the “increase of aqueous solubility” value [1] was “increased greatly” and the “concentration prepared and stabilized” value [1] was 4650 µg/mL.

For beta amyloid 1-42, the “solubility in aqueous solution” value ([2]; pH 3) is given as “very soluble”, the “solubility in aqueous solution” value ([2]; pH 7) is given as “essentially insoluble” and the “solubility in aqueous solution” value ([2]; physiological pH, e.g., pH 7.4) is given as “very low solubility”.

In the case of “growth and differentiation factor-5 [GDF-5]”, the “pH threshold for solubility” value ([3]; aqueous solutions of GDF-5) is given as 4.3, the “pH above which the protein starts precipitating” value ([3]; aqueous solutions, profile shown in EP 1 462 126) is given as “above 4.25” and the “blood exposure, intravenous relative to intranasal” value [4] is given as “twice as great”. The “midbrain concentration, intravenous relative to intranasal” value [4] was “less than half”, the “retrieval percentage of GDF-5 in supernatant” value [5] was “below 15%” and the “concentration at which neuroprotective effects have been demonstrated” value [6] was 1 nM.
